“Also recorded” adds a separate entry of the source. Read-outs that look alike come from different tables or passages of the source.
Columns and labels:
HSV-2 [1] = conditions: 5 μM or less; cited from earlier work
[2] = Cytotoxicity reported with the HBV assay (Table 4); format: cell-based; conditions: human, hepatoma cells; read-out: CC50 (HBV assay table)
Procedure: (§1) Qualitative assessments of cytotoxicity were done visually by inspecting the cells in the primary screening assays. For the quantitative assays, cells were plated in 96-well plates at 1.0×10^4 per well. The next day the compounds were added at 0.78 to 100 μM in a final concentration of 1% (v/v) DMSO, and the cells were incubated for 24 hours under conditions identical to those employed for the viral replication inhibition assays. Mitochondrial toxicity was measured by incubating the cells with 0.25 mg/mL thiazolyl blue tetrazolium bromide (MTT, Sigma Aldrich Chemical Co.), the cultures were incubated for 60 min, metabolites were solubilized in acidic isopropanol, and absorbance was read at 570 nm. CC50 values were calculated by non-linear curve fitting using GraphPad Prism.

HSV-2 [3] = experiment: Anti-HSV-2 replication assay in Vero cells, titers by plaque assay; format: cell-based, herpes simplex virus 2; conditions: for log reduction at 5 µM / log reduction at 50 µM: Human alphaherpesvirus 2, Vero, 24 h; for log reduction at 5 µM: read-out: HSV-2 Log suppression 5 μM; for log reduction at 50 µM: read-out: HSV-2 Log suppression 50 μM
[4] = Quantitative Vero cell toxicity (MTT); format: cell-based; conditions: African green monkey, Vero cells
Procedure: as §1
Quantitative toxicity measurements were conducted for all compounds that suppressed HSV replication by >2 log10 at 5 μM plus a number of compounds with lesser inhibitory activity for comparison. Toxicity was assessed by […]. Cells were plated in 96-well plates at 1.0×10^4 per well. The next day compound was added in concentrations ranging from 0.78 to 100 μM in a final concentration of 1% (v/v) DMSO. The cells were incubated for 24 h under conditions identical to those employed for the viral replication inhibition assays, and then mitochondrial activity was measured with the MTT assay (Sigma Aldrich) according to the manufacturer's instructions. Percent viability was determined for each compound concentration from the […], and then 50% cytotoxic concentrations (CC50) values were calculated by non-linear curve fitting using GraphPad Prism. Consistent with the subjective assessments of toxicity, all compounds selected for quantitative toxicity assessment had CC50 values≥50 μM under these conditions (Table 1).

HSV-1 [5] = experiment: Anti-HSV-1 replication assay in Vero cells, titers by plaque assay; format: cell-based, herpes simplex virus 1; conditions: for log reduction at 5 µM: read-out: HSV-1 Log suppression 5 μM; for log reduction at 50 µM: read-out: HSV-1 Log suppression 50 μM
Procedure: Vero cells were maintained in Dulbecco's modified Eagle's medium (DMEM) containing 3% newborn calf serum, 3% bovine growth serum, 2 mM L-glutamine and 100 IU/mL penicillin and 0.1 mg/mL streptomycin (P/S). HSV-1 #6 and HSV-2 #1 are de-identified clinical isolates from the Saint Louis University Hospital. Stocks were prepared after a single passage in cell culture and were titered by standard plaque assay (Knipe and Spang, 1982). Wild-type HSV-2 used in FIG. 3 was laboratory strain 333. […] Virus stocks were grown and titered on Vero cells (Morrison and Knipe, 1996).
(§2) Compounds to be screened were diluted in PBS supplemented to contain 2% newborn calf serum and 1% glutamine, and added in 100 μL volume to confluent cell monolayers in 24-well cluster plates. Immediately thereafter HSV-1 and HSV-2, diluted in the supplemented PBS medium, were added to the wells in 50 μl volume such that the final concentration of compound was 50 μM and 5 μM and the multiplicity of infection was 0.1. The plates were incubated at 37° C. for 1 hour and then virus-containing inoculum was removed and the wells were washed once in PBS. Compounds, diluted to 50 μM and 5 μM in DMEM supplemented to contain 2% newborn calf serum and 1% each penicillin/streptomycin, were added at 0.5 mL/well. Plates were incubated at 37° C. an additional 23 hr, and then the plates were visually inspected through a phase contrast microscope for cytopathic effect, and for toxic effect. […] The entire contents of each well were collected by scraping. Samples were frozen at −80° C., and then subsequently thawed, sonicated, and infectious virus titer was determined by standard plaque assay on Vero cell monolayers. Because the compounds were dissolved at 10 mM in 100% DMSO, equivalent dilutions of DMSO were added to additional wells as a control for effects of the diluent. Each experiment was repeated once. EC50 values were determined as above except that serial dilutions of the compound to be tested were prepared starting at 50 μM. The inhibitory values were calculated by non-linear curve-fitting in GraphPad Prism.

HSV = experiment: Anti-HSV SAR summary, HSV type not separated; format: cell-based, herpes simplex virus; conditions: grouped by activity at 50, 5 and 0.5 μM
Procedure: as §2
A series of over 20 synthetic αHTs were synthesized and tested to both confirm the initial SAR, and to provide leads for further optimization pursuits (FIG. 5). […] Specifically, biphenyl-containing molecules #118 and 115 inhibit HSV replication by up to 4 log10 at 200 nM. The increased potency over close analogs #111 and 113 confirmed the importance of added lipophilicity.

HSV-1 [6] = conditions: 5 μM or less; cited from earlier work
HBV = HBV replication assay in HepDES19 cells; format: cell-based; conditions: Hepatitis B virus
Procedure: HBV replication assay. Inhibition of HBV replication was measured in HepDES19 cells as previously described (Cai, et al., 2014). Cells were seeded into 6-well plates and incubated in DMEM/F12, 10% fetal bovine serum (FBS), 1% penicillin/streptomycin (P/S) with 1 μg/ml tetracycline. Tetracycline was withdrawn after 24 hours. The test compound was applied to duplicate wells 48 hours later in medium containing a final DMSO concentration of 1%, and medium containing the compound was refreshed daily for the following two days. Cells were harvested and non-encapsidated nucleic acids were digested with micrococcal nuclease (New England Biolabs). HBV DNA was purified from capsids using QIAamp Cador Pathogen Mini Kit (Qiagen) with proteinase K incubation overnight at 37° C. TaqMan PCR was performed for 40 cycles at an annealing temperature of 60° C. Primers and probe (IDT Inc.) for the plus-polarity strand were: 5′[…]3′ (SEQ ID NO: 1); 5′[…]3′ (SEQ ID NO: 2); 5′/56-FAM/[…]/ZEN/[…]/3IABkFQ (SEQ ID NO: 3). Primers and probe for the minus-polarity strand were: 5′[…]3′ (SEQ ID NO: 4); 5′[…]3′ (SEQ ID NO: 5); 5′/56-FAM/[…]/ZEN/[…]/3IABkFQ (SEQ ID NO: 6).

[7] = Mouse liver microsome assay; format: in vitro ADME; conditions: 1 μM in mouse liver microsomes; for half-life at 1 μM: read-out: t ½; for ER: extraction ratio
Procedure: Microsomal incubations are run at a final P450 concentration of 0.25 μM. The microsomal mixture is composed of 0.1M potassium phosphate containing 3.3 mM MgCl and 1 μM compound (final concentration). The mixture is prewarmed for 5 min at 37° C. To initiate the reaction a 12 mM stock of NAPDH (1.2 mM, final concentration) is added to the warmed microsomal mixture and aliquots are removed at 0, 5, 10, 20 and 30 min. Samples are quenched with ice cold acetonitrile containing internal standard and either 1.8 mM EDTA or EGTA (final concentration). Samples are vortexed and spun down at 3200 rpm for 5 min. The supernant is transferred to 96-deep well plates and run on LC/MS/MS.

[8] = Human alphaherpesvirus 1, Vero, 24 h
[9] = HepDES19 cells, read-out: EC50 (HBV assay)

Row | SMILES | suppression of HSV-2 replication in cell culture, in words (HSV-2 [1]) | CC50 at 24 h [2] | log reduction at 5 µM (HSV-2 [3]) | CC50 at 24 h [4] | log reduction at 5 µM (HSV-1 [5]; [8]) | anti-HSV SAR group, in words (HSV) | suppression of HSV-1 replication in cell culture, in words (HSV-1 [6]) | EC50 (HBV; [9]) | log reduction at 50 µM (HSV-2 [3]) | log reduction at 50 µM (HSV-1 [5]; [8]) | Non-P450 turn-over [7] | half-life at 1 μM [7] | ER [7] | HSV-2 inhibition, fold (HSV-2 [3]; 5 μM) | HSV-1 inhibition, fold (HSV-1 [5]; 5 μM) | EC50 (HSV-1 [5]; Human alphaherpesvirus 1, Vero, 24 h, read-out: HSV-1 EC50) | EC50 (HBV; HepDES19, read-out: EC50 (HBV assay))
1 | Cc1cc(O)c(=O)c(O)cc1C(=O)c1ccccc1 [Compound 111] | strongly suppress | 31 µM | 3.21 | > 50 µM | 4.28 | fully inhibitory at 5 μM | strongly suppress |  |  |  |  |  |  |  |  |  | 
2 | Cc1cc(O)c(=O)c(O)cc1-c1ccccc1 [Compound 113] |  |  | 2.07 | > 100 µM | 2.27 |  |  | 4.2 µM | 5.61 | 5.38 |  |  |  |  |  |  | 
3 | Cc1cc(O)c(=O)c(O)cc1-c1ccc(Br)cc1 [Compound 114] |  |  | 3.92 | > 100 µM | 4.8 |  |  |  | 5.26 | 4.75 |  |  |  |  |  |  | 
4 | Cc1cc(O)c(=O)c(O)cc1-c1cccc(Br)c1 [Compound 119] |  | 81 µM | 5.02 | 72.4 µM | 5.19 |  |  | 6.4 µM | 4.88 | 5.28 |  |  |  |  |  |  | 
5 | Cc1cc(O)c(=O)c(O)cc1C(=O)C1CCCCC1 [Compound 120] | strongly suppress | 24 µM | 5.41 | ~50 µM | 4.84 | fully inhibitory at 5 μM | strongly suppress |  | 5.07 | 5.53 |  |  |  |  |  |  | 
6 | Cc1cc(O)c(=O)c(O)cc1C(=O)C(C)C [Compound 143] | strongly suppress | > 100 µM | 0 |  | 0.25 | weakest inhibitors | strongly suppress | 6 µM | 4.78 | 5.93 |  |  |  |  |  |  | 
7 | Cc1cc(O)c(=O)c(O)cc1-c1ccc(C(F)(F)F)cc1 [Compound 145] |  |  | 4.05 | > 100 µM | 3.96 |  |  |  | 4.33 | 3.97 |  |  |  |  |  |  | 
8 | Cc1cc(O)c(=O)c(O)cc1-c1cccc2ccccc12 [Compound 146] |  | 12 µM | 5.66 | > 100 µM | 5.68 | highly inhibitory at much lower concentrations; also recorded: fully inhibitory at 0.5 μM |  | 2.3 µM | 5.29 | 6.2 | No | > 2 h | <0.1 | 457,100 fold | 478,600 fold | 0.45 µM | 
9 | Cc1cc(O)c(=O)c(O)cc1-c1ccc2ccccc2c1 [Compound 147] |  |  | 4.33 | 74.8 µM | 5.92 |  |  |  | 4.12 | 5.81 | No | > 2 h | <0.1 |  |  |  | 
10 | O=c1c(O)ccccc1O [Compound 172] |  | > 100 µM | 1.8 | > 100 µM | 3.31 | moderate inhibitors |  |  | 4.64 | 4.11 |  |  |  |  |  |  | 2.1 µM
11 | Cc1cc(O)c(=O)c(O)cc1C(=O)CC1CCCCC1 [Compound 173] |  | 22 µM | 5.32 | > 100 µM | 5.91 | fully inhibitory at 5 μM |  | 6.7 µM | 5.94 | 5.8 |  |  |  |  |  |  | 
